The values below are quoted from earlier work in patent publication US20220257614A1, “USE OF 12-LIPOXYGENASE INHIBITORS IN THE TREATMENT OF COVID-19” (New York Medical College, priority 2021, published 2022).

The data set has as its system human islets. The following applies: in vitro; background statement.

Consider `COc1cccc(CNc2ccc(S(=O)(=O)Nc3nc4ccccc4s3)cc2)c1O` [ML-355], for which the “protection of human islets from inflammatory injury” value is “protect human islets from inflammatory injury”.
